Measurements as given in ChEMBL document CHEMBL1671626, “In vitro profiling of ceftaroline against a collection of recent bacterial clinical isolates from across the United States” (2008).
≈ marks a conversion by molar mass, not a printed value.

Columns and labels:
Format in all cases: functional
Citrobacter freundii [1] = assay: Antibacterial activity against ceftazidime-susceptible Citrobacter freundii by CLSI M7-A7 broth microdilution method
Acinetobacter [2] = assay: Antibacterial activity against multidrug-resistant Acinetobacter assessed as susceptible isolates by CLSI M7-A7 broth microdilution method
Enterobacteriaceae [3] = assay: Antibacterial activity against ceftazidime-susceptible Enterobacteriaceae by CLSI M7-A7 broth microdilution method
Staphylococcus aureus [4] = assay: Antibacterial activity against methicillin-susceptible Staphylococcus aureus by CLSI M7-A7 broth microdilution method
Enterobacter cloacae [5] = assay: Antibacterial activity against ceftazidime-susceptible Enterobacter cloacae by CLSI M7-A7 broth microdilution method
Staphylococcus aureus [6] = assay: Antibacterial activity against coagulase-negative and oxacillin-susceptible Staphylococcus aureus assessed as susceptible isolates by CLSI M7-A7 broth microdilution method
Streptococcus pyogenes = assay: Antibacterial activity against erythromycin-nonsusceptible Streptococcus pyogenes by CLSI M7-A7 broth microdilution method
Streptococcus agalactiae = assay: Antibacterial activity against erythromycin-susceptible Streptococcus agalactiae by CLSI M7-A7 broth microdilution method
Citrobacter freundii [7] = assay: Antibacterial activity against ceftazidime-nonsusceptible Citrobacter freundii assessed as resistant isolates by CLSI M7-A7 broth microdilution method
Serratia marcescens [8] = assay: Antibacterial activity against ceftazidime-susceptible Serratia marcescens assessed as susceptible isolates by CLSI M7-A7 broth microdilution method
Staphylococcus aureus [9] = assay: Antibacterial activity against methicillin-resistant Staphylococcus aureus assessed as susceptible isolates by CLSI M7-A7 broth microdilution method
Staphylococcus aureus [10] = assay: Antibacterial activity against coagulase-negative and oxacillin-resistant Staphylococcus aureus by CLSI M7-A7 broth microdilution method
Citrobacter freundii [11] = assay: Antibacterial activity against ceftazidime-nonsusceptible Citrobacter freundii assessed as susceptible isolates by CLSI M7-A7 broth microdilution method
Pasteurella multocida = assay: Antibacterial activity against Pasteurella multocida by CLSI M7-A7 broth microdilution method
Acinetobacter [12] = assay: Antibacterial activity against multidrug-resistant Acinetobacter assessed as resistant isolates by CLSI M7-A7 broth microdilution method
Proteus mirabilis [13] = assay: Antibacterial activity against ceftazidime-susceptible Proteus mirabilis assessed as susceptible isolates by CLSI M7-A7 broth microdilution method
Escherichia coli [14] = assay: Antibacterial activity against ceftazidime-susceptible Escherichia coli by CLSI M7-A7 broth microdilution method
Klebsiella pneumoniae [15] = assay: Antibacterial activity against ceftazidime-susceptible Klebsiella pneumoniae assessed as resistant isolates by CLSI M7-A7 broth microdilution method
Staphylococcus aureus [16] = assay: Antibacterial activity against coagulase-negative and oxacillin-susceptible Staphylococcus aureus by CLSI M7-A7 broth microdilution method
Citrobacter freundii [17] = assay: Antibacterial activity against ceftazidime-nonsusceptible Citrobacter freundii by CLSI M7-A7 broth microdilution method
Staphylococcus aureus [18] = assay: Antibacterial activity against methicillin-susceptible Staphylococcus aureus assessed as resistant isolates by CLSI M7-A7 broth microdilution method
Serratia marcescens [19] = assay: Antibacterial activity against ceftazidime-susceptible Serratia marcescens by CLSI M7-A7 broth microdilution method
Acinetobacter [20] = assay: Antibacterial activity against multidrug-resistant Acinetobacter by CLSI M7-A7 broth microdilution method
Staphylococcus aureus [21] = assay: Antibacterial activity against coagulase-negative and oxacillin-susceptible Staphylococcus aureus assessed as resistant isolates by CLSI M7-A7 broth microdilution method
Haemophilus influenzae [22] = assay: Antibacterial activity against beta lactamase-negative Haemophilus influenzae assessed as susceptible isolates by CLSI M7-A7 broth microdilution method
Morganella morganii = assay: Antibacterial activity against ceftazidime-susceptible Morganella morganii by CLSI M7-A7 broth microdilution method
Klebsiella pneumoniae [23] = assay: Antibacterial activity against ceftazidime-nonsusceptible Klebsiella pneumoniae assessed as susceptible isolates by CLSI M7-A7 broth microdilution method
Providencia sp. = assay: Antibacterial activity against ceftazidime-susceptible Providencia sp. assessed as susceptible isolates by CLSI M7-A7 broth microdilution method
Proteus mirabilis [24] = assay: Antibacterial activity against ceftazidime-susceptible Proteus mirabilis by CLSI M7-A7 broth microdilution method
Enterobacteriaceae [25] = assay: Antibacterial activity against ceftazidime-susceptible Enterobacteriaceae assessed as susceptible isolates by CLSI M7-A7 broth microdilution method
Staphylococcus aureus [26] = assay: Antibacterial activity against methicillin-resistant Staphylococcus aureus by CLSI M7-A7 broth microdilution method
Haemophilus influenzae [27] = assay: Antibacterial activity against beta lactamase-positive Haemophilus influenzae assessed as susceptible isolates by CLSI M7-A7 broth microdilution method
Enterobacter cloacae [28] = assay: Antibacterial activity against ceftazidime-nonsusceptible Enterobacter cloacae by CLSI M7-A7 broth microdilution method
Escherichia coli [29] = assay: Antibacterial activity against ceftazidime-nonsusceptible Escherichia coli by CLSI M7-A7 broth microdilution method
Enterobacteriaceae [30] = assay: Antibacterial activity against ceftazidime-nonsusceptible Enterobacteriaceae assessed as susceptible isolates by CLSI M7-A7 broth microdilution method
Enterobacteriaceae [31] = assay: Antibacterial activity against ceftazidime-susceptible Enterobacteriaceae assessed as resistant isolates by CLSI M7-A7 broth microdilution method
Haemophilus influenzae [32] = assay: Antibacterial activity against beta lactamase-negative Haemophilus influenzae by CLSI M7-A7 broth microdilution method

Q: Which results are given for `CC(C)(O/N=C(\C(=O)N[C@@H]1C(=O)N2C(C(=O)[O-])=C(C[n+]3ccccc3)CS[C@H]12)c1csc(N)n1)C(=O)O` [CEFTAZIDIME]?
A: MIC50 (Citrobacter freundii [1]): 0.25 µg/mL (≈ 0.457 µM); MIC90 (Citrobacter freundii [1]): 1 µg/mL (≈ 1.83 µM); Activity (Acinetobacter [2]): 0%; MIC50 (Enterobacteriaceae [3]): 0.12 µg/mL (≈ 0.22 µM); MIC90 (Enterobacteriaceae [3]): 0.5 µg/mL (≈ 0.915 µM); MIC50 (Staphylococcus aureus [4]): 8 µg/mL (≈ 14.6 µM); MIC90 (Staphylococcus aureus [4]): 8 µg/mL (≈ 14.6 µM); MIC50 (Enterobacter cloacae [5]): 0.25 µg/mL (≈ 0.457 µM); MIC90 (Enterobacter cloacae [5]): 1 µg/mL (≈ 1.83 µM); Activity (Staphylococcus aureus [6]): 93.5%; MIC (Streptococcus pyogenes): ≤ 1 µg/mL; MIC50 (Streptococcus pyogenes): ≤ 1 µg/mL; MIC90 (Streptococcus pyogenes): ≤ 1 µg/mL; MIC (Streptococcus agalactiae): ≤ 1 µg/mL; MIC50 (Streptococcus agalactiae): ≤ 1 µg/mL; MIC90 (Streptococcus agalactiae): ≤ 1 µg/mL; Activity (Citrobacter freundii [7]): 97%; Activity (Serratia marcescens [8]): 100%; Activity (Staphylococcus aureus [9]): 11%; MIC50 (Staphylococcus aureus [10]): 32 µg/mL (≈ 58.5 µM); MIC90 (Staphylococcus aureus [10]): > 32 µg/mL; Activity (Citrobacter freundii [11]): 0%; MIC (Pasteurella multocida): ≤ 1 µg/mL; MIC50 (Pasteurella multocida): ≤ 1 µg/mL; MIC90 (Pasteurella multocida): ≤ 1 µg/mL; Activity (Acinetobacter [12]): 93.8%; Activity (Proteus mirabilis [13]): 100%; MIC50 (Escherichia coli [14]): 0.12 µg/mL (≈ 0.22 µM); MIC90 (Escherichia coli [14]): 0.25 µg/mL (≈ 0.457 µM); Activity (Klebsiella pneumoniae [15]): 0%; MIC50 (Staphylococcus aureus [16]): 4 µg/mL (≈ 7.32 µM); MIC90 (Staphylococcus aureus [16]): 8 µg/mL (≈ 14.6 µM); MIC50 (Citrobacter freundii [17]): > 32 µg/mL; MIC90 (Citrobacter freundii [17]): > 32 µg/mL; Activity (Staphylococcus aureus [18]): 1.7%; MIC50 (Serratia marcescens [19]): 0.12 µg/mL (≈ 0.22 µM); MIC90 (Serratia marcescens [19]): 1 µg/mL (≈ 1.83 µM); MIC50 (Acinetobacter [20]): > 32 µg/mL; MIC90 (Acinetobacter [20]): > 32 µg/mL; Activity (Staphylococcus aureus [21]): 0.5%; Activity (Haemophilus influenzae [22]): 98.5%; MIC50 (Morganella morganii): 0.06 µg/mL (≈ 0.11 µM); MIC90 (Morganella morganii): 4 µg/mL (≈ 7.32 µM); Activity (Klebsiella pneumoniae [23]): 0%; Activity (Providencia sp.): 100%; MIC50 (Proteus mirabilis [24]): 0.06 µg/mL (≈ 0.11 µM); MIC90 (Proteus mirabilis [24]): 0.12 µg/mL (≈ 0.22 µM); Activity (Enterobacteriaceae [25]): 100%; MIC50 (Staphylococcus aureus [26]): 32 µg/mL (≈ 58.5 µM); MIC90 (Staphylococcus aureus [26]): > 32 µg/mL; Activity (Haemophilus influenzae [27]): 98%; MIC50 (Enterobacter cloacae [28]): > 32 µg/mL; MIC90 (Enterobacter cloacae [28]): > 32 µg/mL; MIC50 (Escherichia coli [29]): > 32 µg/mL; MIC90 (Escherichia coli [29]): > 32 µg/mL; Activity (Enterobacteriaceae [30]): 0%; Activity (Enterobacteriaceae [31]): 0%; MIC50 (Haemophilus influenzae [32]): 0.06 µg/mL (≈ 0.11 µM); MIC90 (Haemophilus influenzae [32]): 0.12 µg/mL (≈ 0.22 µM)
